Measurements from article PMC11977255 (Communications Biology, 2025).

Legend:
McyI [1] = biological target: T1, McyI (Anabaena sp. 90, UniProt Q7WRR2); experiment: reductase assay, absorbance at […] nm; format: biochemical; conditions: 1 mM OAA, 0.2 mM NADPH, 1.6 μM enzyme
McyI [2] = biological target: T1, McyI; experiment: isothermal titration calorimetry; format: binding

T1 sequence (Q7WRR2 1-337 limits assumed): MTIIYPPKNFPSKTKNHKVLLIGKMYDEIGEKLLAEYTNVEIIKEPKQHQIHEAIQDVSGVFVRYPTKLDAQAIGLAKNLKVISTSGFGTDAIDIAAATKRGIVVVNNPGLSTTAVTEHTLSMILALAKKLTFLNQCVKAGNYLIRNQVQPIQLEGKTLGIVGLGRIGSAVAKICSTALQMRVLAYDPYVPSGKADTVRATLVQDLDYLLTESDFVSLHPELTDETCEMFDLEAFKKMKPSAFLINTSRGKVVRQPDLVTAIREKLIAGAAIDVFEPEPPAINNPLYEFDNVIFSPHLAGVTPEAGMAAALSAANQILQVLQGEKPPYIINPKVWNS

| SMILES | reductase assay, absorbance at 340 nm (McyI [1]) | Kd (McyI [2]) |
| --- | --- | --- |
| O=C(O)CC(=O)C(=O)O [OAA] | The enzyme, OAA, and the nicotinamide cofactor |  |
| NC(=O)C1=CN([C@@H]2O[C@H](COP(=O)(O)OP(=O)(O)OC[C@H]3O[C@@H](n4cnc5c(N)ncnc54)[C@H](OP(=O)(O)O)[C@@H]3O)[C@@H](O)[C@H]2O)C=CC1 [NADPH] |  | 16 µM |
